{
  "source": "patent US20260069551A1",
  "about": "“Patch for treating demyelinating diseases” (Johannes Gutenberg-Universität Mainz, priority 2022, published 2026)",
  "origin": "cited, not measured here",
  "tested_on": "injured nerves",
  "details": "10 mg/kg/day, intraperitoneally injected",
  "data": [
    {"molecule": "Cn1c(=O)c2[nH]cnc2n(C)c1=O", "note": "[theophylline, 1,3-dimethyl-7H-purine-2,6-dione]", "values": [
      {"measurement": "remyelination of injured nerves", "result": "significant remyelination"}
    ]}
  ]
}
